Laboratory results taken from patent publication US20140288073A1, “Method of Treating Gastrointestinal Stromal Tumors” (NOVARTIS AG, priority 2011, published 2014).
Entries after “also recorded” stand apart in the source; their conditions may differ.

What was measured:
GIST882 cells = experiment: CellTiter-Glo cell viability/proliferation assay, GIST882; type: cell-based, human; settings: for Inhibition of proliferation as single agent: GIST882 (K642E mutant KIT), Example 2; for Combination Index for 70% inhibition of GIST cell proliferation / Synergy Score for inhibition of GIST cell proliferation: Imatinib combined with the compound
Source text: (§1) GIST882, GIST48 and GIST430 cell lines were obtained from the Brigham and Women's Hospital, Boston, Mass. GIST882 was established from an untreated human GIST with a homozygous missense mutation in KIT exon 13, encoding a […] mutant KIT protein ([…], et al. Oncogene 2001; 20: 5054-5058). […] GIST48 has a primary homozygous exon 11 missense mutation […]) and a secondary heterozygous exon 17 missense mutation […]). GIST430 has a primary heterozygous exon 11 in-frame deletion and a secondary heterozygous exon 13 missense mutation (V654A). GIST-T1 was obtained from Kochi Medical School, Kochi, Japan. It was established from a metastatic human GIST with a heterozygous […] bases in exon 11 of KIT (Taguchi T, Sonobe H, Toyonaga S, et al. Lab Invest 2002; 82: 663-665). […] Cell proliferation was measured using the CellTiter-Glo luminescent cell viability assay (Promega catalog #G755B) and Victor4 plate reader (Perkin Elmer). Synergy scores and CI70 calculations were determined as described elsewhere (Lehar J, Krueger A S, et al. Nat Biotechnol 2009; 27: 659-666).

GIST-T1 cells = experiment: CellTiter-Glo cell viability/proliferation assay, GIST-T1; type: cell-based, human; settings: for Inhibition of proliferation as single agent: GIST-T1 (ex11del KIT), Example 2; for Combination Index for 70% inhibition of GIST cell proliferation / Synergy Score for inhibition of GIST cell proliferation: Imatinib combined with the compound
Source text: as §1

GIST cell lines = experiment: Combination effect on growth of GIST cell lines (FIG. 6); type: cell-based, human; settings: combination with nilotinib, presence of 20 ng/ml FGF2, monophosphate
Procedure: FIG. 6: Combination effect of nilotinib plus BGJ398 in GIST cell lines in the presence of 20 ng/ml FGF2.
10,000 cells suspended in 80 μl media were seeded into each well of a 96-well cell-culture plate and grown for 24 hours prior to treatment. 10 μl of 60 μg/mL heparin (Sigma Catalog # H3149) was added to each well, and then 10 μl of 50 μg/mL FGF2 (R&D Catalog #233-FB/CF) or media was added to each well of the plates. 10 μl of each of the compound dilutions described above and 10 μl of media were added to wells to a final volume 120 μl such that all pair-wise combinations as well as the single agents were represented. Cells were incubated for 72 hrs at 37° C. in a 5% CO2 incubator following compound addition. Cell proliferation was measured using the CellTiter-Glo luminescent cell viability assay (Promega catalog #G755B) and Victor4 plate reader (Perkin Elmer). Synergy scores and CI70 calculations were determined as described elsewhere (Lehar J, Krueger A S, et al. Nat Biotechnol 2009; 27: 659-666).

GIST48 cells = experiment: CellTiter-Glo cell viability/proliferation assay, GIST48; type: cell-based, human; settings: for Inhibition of proliferation as single agent: Example 2; for Combination Index for 70% inhibition of GIST cell proliferation / Synergy Score for inhibition of GIST cell proliferation: Imatinib combined with the compound
Source text: as §1

GIST430 cells = experiment: CellTiter-Glo cell viability/proliferation assay, GIST430; type: cell-based, human; settings: for Inhibition of proliferation as single agent: GIST430 (ex11del/V654A KIT), Example 2; for Growth suppression in combination with imatinib versus single agent treatment / Combination Index for 70% inhibition of GIST cell proliferation / Synergy Score for inhibition of GIST cell proliferation: GIST430; for Combination Index for 70% inhibition of GIST cell proliferation / Synergy Score for inhibition of GIST cell proliferation: Imatinib combined with the compound
Source text: as §1

GIST [1] = settings: cited from earlier work
GIST [2] = settings: cited from earlier work; remark: listed apart in the source
[3] = GIST882, absence of FGF2, 3 days
[4] = GIST882, presence of added FGF2, 3 days
[5] = GIST-T1, absence of FGF2, 3 days
[6] = GIST-T1, presence of added FGF2, 3 days
[7] = GIST882, combination with imatinib

## CCN1CCN(c2ccc(Nc3cc(N(C)C(=O)Nc4c(Cl)c(OC)cc(OC)c4Cl)ncn3)cc2)CC1.O=P(O)(O)O [BGJ398, 3-(2,6-dichloro-3,5-dimethoxy-phenyl)-1-{6-[4-(4-ethyl-piperazin-1-yl)-phenylamino]-pyrimid-4-yl}-1-methyl-urea monophosphate]
GIST882 cells; [3]
  Growth inhibition as single agent: did not significantly affect the viability
GIST882 cells; GIST882, combination with imatinib, presence of FGF2 (20 ng/ml)
  Combination effect on growth inhibition: strong combination effects
GIST882 cells; [4]
  Growth inhibition as single agent: did not significantly affect the viability
GIST-T1 cells; [5]
  Growth inhibition as single agent: did not significantly affect the viability
GIST-T1 cells; GIST-T1, combination with imatinib, presence of FGF2 (20 ng/ml)
  Combination effect on growth inhibition: strong combination effects
GIST-T1 cells; [6]
  Growth inhibition as single agent: did not significantly affect the viability
GIST cell lines
  Combination effect on growth inhibition: strong combination effects; also recorded: synergy

## Nc1cc(C(F)(F)F)c(-c2cc(N3CCOCC3)nc(N3CCOCC3)n2)cn1 [COMPOUND C, 5-(2,6-di-morpholin-4-yl-pyrimidin-4-yl)-4-trifluoromethyl-pyridin-2-ylamine]
GIST882 cells
  Inhibition of proliferation as single agent: inhibited the proliferation of all four cell-lines at low micromolar concentrations
GIST882 cells; [7]
  Growth suppression in combination with imatinib versus single agent treatment: growth suppression was observed in excess of the percent inhibition achieved by imatinib or COMPOUND C single agent treatment
GIST882 cells; GIST882
  Combination Index for 70% inhibition of GIST cell proliferation: 0.597
  Synergy Score for inhibition of GIST cell proliferation: 1.90
GIST-T1 cells
  Inhibition of proliferation as single agent: inhibited the proliferation of all four cell-lines at low micromolar concentrations
GIST-T1 cells; GIST-T1
  Combination Index for 70% inhibition of GIST cell proliferation: 0.782
  Synergy Score for inhibition of GIST cell proliferation: 1.29
GIST48 cells
  Inhibition of proliferation as single agent: inhibited the proliferation of all four cell-lines at low micromolar concentrations
  Combination Index for 70% inhibition of GIST cell proliferation: 0.716
  Synergy Score for inhibition of GIST cell proliferation: 1.20
GIST430 cells
  Inhibition of proliferation as single agent: inhibited the proliferation of all four cell-lines at low micromolar concentrations
  Growth suppression in combination with imatinib versus single agent treatment: growth suppression was observed in excess of the percent inhibition achieved by imatinib or COMPOUND C single agent treatment
  Combination Index for 70% inhibition of GIST cell proliferation: 0.252
  Synergy Score for inhibition of GIST cell proliferation: 1.96

## Cc1nc(NC(=O)N2CCC[C@H]2C(N)=O)sc1-c1ccnc(C(C)(C)C(F)(F)F)c1 [COMPOUND D, (S)-pyrrolidine-1,2-dicarboxylic acid 2-amide 1-({4-methyl-5-[2-(2,2,2-trifluoro-1,1-dimethyl-ethyl)-pyridin-4-yl]-thiazol-2-yl}-amide)]
GIST882 cells
  Inhibition of proliferation as single agent: little or no effect
GIST882 cells; GIST882
  Synergy Score for inhibition of GIST cell proliferation: 0.46
GIST-T1 cells
  Inhibition of proliferation as single agent: little or no effect
GIST-T1 cells; GIST-T1
  Combination Index for 70% inhibition of GIST cell proliferation: 0.988
  Synergy Score for inhibition of GIST cell proliferation: 1.06
GIST48 cells
  Inhibition of proliferation as single agent: little or no effect
  Combination Index for 70% inhibition of GIST cell proliferation: 1.18
  Synergy Score for inhibition of GIST cell proliferation: 1.98
GIST48 cells; combination with imatinib
  Growth suppression in combination with imatinib versus single agent treatment: growth suppression was observed in excess of the percent inhibition achieved by imatinib or COMPOUND D single agent treatment
GIST430 cells
  Inhibition of proliferation as single agent: little or no effect
  Growth suppression in combination with imatinib versus single agent treatment: growth suppression was observed in excess of the percent inhibition achieved by imatinib or COMPOUND D single agent treatment
  Combination Index for 70% inhibition of GIST cell proliferation: 0.791
  Synergy Score for inhibition of GIST cell proliferation: 2.04

## Cc1ccc(NC(=O)c2ccc(CN3CCN(C)CC3)cc2)cc1Nc1nccc(-c2cccnc2)n1 [imatinib, 4-(4-methylpiperazin-1-ylmethyl)-N-[4-methyl-3-(4-(pyridin-3-yl)pyrimidin-2-ylamino)phenyl]-benzamide, reference compound]
GIST882 cells
  Inhibition of proliferation as single agent: potently inhibited
GIST882 cells; [3]
  Growth inhibition as single agent: efficacious
GIST882 cells; [4]
  Growth inhibition as single agent: less sensitive
GIST-T1 cells
  Inhibition of proliferation as single agent: potently inhibited
GIST-T1 cells; [5]
  Growth inhibition as single agent: efficacious
GIST-T1 cells; [6]
  Growth inhibition as single agent: less sensitive
GIST48 cells
  Inhibition of proliferation as single agent: imatinib resistant
GIST430 cells
  Inhibition of proliferation as single agent: potently inhibited
GIST [1]; 800 mg/day compared to 400 mg/day, advanced GIST harboring KIT exon 9 mutations
  Progression-free survival (PFS): significantly improves
GIST [1]; advanced GIST, first line therapy
  Patients progressing after 2 years of first line therapy: more than 50%
GIST [2]; 400 mg/day for 12 months compared with placebo, after complete resection (ACOSOGZ9001)
  Recurrence-free survival (RFS): significantly prolonged
GIST [2]; 36 months versus 12 months adjuvant therapy, 400 mg once daily (SSGXVIII/AIO)
  RFS and overall survival: superior to 12 months

## Cn1c(=O)n(-c2ccc(C(C)(C)C#N)cc2)c2c3cc(-c4cnc5ccccc5c4)ccc3ncc21 [COMPOUND A, 2-methyl-2-[4-(3-methyl-2-oxo-8-quinolin-3-yl-2,3-dihydro-imidazo[4,5-c]quinolin-1-yl)-phenyl]-propionitrile]
GIST882 cells
  Inhibition of proliferation as single agent: inhibited the proliferation of all four cell-lines at low micromolar concentrations
GIST882 cells; [7]
  Growth suppression in combination with imatinib versus single agent treatment: growth suppression was observed in excess of the percent inhibition achieved by imatinib or COMPOUND A single agent treatment
GIST882 cells; GIST882
  Combination Index for 70% inhibition of GIST cell proliferation: 0.194
  Synergy Score for inhibition of GIST cell proliferation: 5.07
GIST-T1 cells
  Inhibition of proliferation as single agent: inhibited the proliferation of all four cell-lines at low micromolar concentrations
GIST-T1 cells; GIST-T1
  Combination Index for 70% inhibition of GIST cell proliferation: 0.493
  Synergy Score for inhibition of GIST cell proliferation: 1.10
GIST48 cells
  Inhibition of proliferation as single agent: inhibited the proliferation of all four cell-lines at low micromolar concentrations
  Combination Index for 70% inhibition of GIST cell proliferation: 1.25
  Synergy Score for inhibition of GIST cell proliferation: 0.38
GIST430 cells
  Inhibition of proliferation as single agent: inhibited the proliferation of all four cell-lines at low micromolar concentrations
  Growth suppression in combination with imatinib versus single agent treatment: growth suppression was observed in excess of the percent inhibition achieved by imatinib or COMPOUND A single agent treatment
  Combination Index for 70% inhibition of GIST cell proliferation: 0.260
  Synergy Score for inhibition of GIST cell proliferation: 2.06

## Cc1cn(-c2cc(NC(=O)c3ccc(C)c(Nc4nccc(-c5cccnc5)n4)c3)cc(C(F)(F)F)c2)cn1 [nilotinib, 4-methyl-3-[[4-(3-pyridinyl)-2-pyrimidinyl]amino]-N-[5-(4-methyl-1H-imidazol-1-yl)-3-(trifluoromethyl)phenyl]benzamide, reference compound]
GIST882 cells; GIST882, 3 days, with vs without added FGF2 (50, 25, 12 ng/ml)
  GI50 shift in the presence of added FGF2: greater than 10 fold
GIST882 cells; [3]
  Growth inhibition as single agent: sensitive
GIST-T1 cells; GIST-T1, 3 days, with vs without added FGF2 (50, 25, 12 ng/ml)
  GI50 shift in the presence of added FGF2: greater than 10 fold
GIST-T1 cells; [5]
  Growth inhibition as single agent: sensitive
